Laboratory results published in ChEMBL document CHEMBL2346547, “Bifunctional inhibition of human immunodeficiency virus type 1 reverse transcriptase: mechanism and proof-of-concept as a novel therapeutic design strategy” (J Med Chem, 2013).

How the values were obtained:
[1] = target: T1, Human immunodeficiency virus type 1 reverse transcriptase (Human immunodeficiency virus 1, UniProt Q72547); assay: Competitive inhibition of C-Terminal histidine-tagged wild type heterodimeric HIV-1 reverse transcriptase p66/p51 assessed as inhibition of dGTP incorporation after 15 mins by PAGE
[2] = target: T1, Human immunodeficiency virus type 1 reverse transcriptase; assay: Competitive inhibition of C-Terminal histidine-tagged wild type heterodimeric HIV-1 reverse transcriptase p66/p51 assessed as inhibition of dTTP incorporation after 15 mins by PAGE

SMILES | IC50 [1] [nM] | IC50 [2] [nM]
C#CCOCCOCCOCCOCCOCC#Cc1cc(C)c(Oc2ccnc(Nc3ccc(C#N)cc3)n2)c(C)c1 | 64 | 122
Cc1cc(C#CCOCCOCCOCCOCCOCC#Cc2cn([C@H]3C=C[C@@H](COP(=O)(O)OP(=O)(O)OP(=O)(O)O)O3)c(=O)[nH]c2=O)cc(C)c1Oc1ccnc(Nc2ccc(C#N)cc2)n1 | 42 | 3
Cc1cc(C#N)cc(C)c1Oc1ccnc(Nc2ccc(C#N)cc2)n1 | 9 | 13
Cc1cn([C@H]2C=C[C@@H](COP(=O)(O)OP(=O)(O)OP(=O)(O)O)O2)c(=O)[nH]c1=O [STAVUDINE TRIPHOSPHATE] | – | 13000
